Reference: US9408845B2, “Formulations containing pyridazine compounds” (Northwestern University, priority 2006, dated 2016)
“Also recorded” adds a separate entry of the source. Where two headings read alike, the source gives them in different places.

Experiments:
[1] = test system: nitric oxide (NO) production in BV-2 microglial cells; test: LPS-stimulated accumulation of nitrite (NO metabolite) in BV-2 cells, Griess assay; format: cell-based, mouse; conditions: for selectivity (inhibits IL-1β but not production of NO, iNOS, COX-2) / inhibition of LPS-stimulated accumulation of the NO metabolite, nitrite: BV-2 cells; for selectivity (inhibits IL-1β but not production of NO, iNOS, COX-2): same concentration range; for inhibition of LPS-stimulated accumulation of the NO metabolite, nitrite: concentrations up to 33 μM; for IC50: read-out: NO, concentration required for 50% inhibition, LPS-stimulated BV-2 cells, 16 hrs
Experimental: (§2) Glia cell-based assays of the concentration-dependent activity of the compounds were done as previously described (Hu T, Ralay Ranaivo et al., Current Alzheimer's Research 2005, 2:197-205; Mirzoeva. S, et al., J Med Chem 2002, 45:563-566; Ralay Ranaivo H, et al., 3 Neurosci 2006, 26:662-670). BV-2 mouse microglial cells were cultured for one day in multiwell plates and then treated in serum-free media for 16 his with either control buffer or the standard glial activating stimulus lipopolysaccharide (LPS, front Salmonella typhimurium; 100 ng/ml) in the presence of diluent or different concentrations of compounds. The accumulation of nitrite, the stable metabolite of nitric oxide (NO), was measured in V-2 conditioned media by the Griess assay as previously described (Hu W, Ralay Ranaivo et al., Current Alzheimer's Research 2005, 2:197-205; Mirzoeva S, et al, J Med Chem 2002, 45:563-566; Mirzoeva 5, et al., Brain Res 1999, 844:126434). Levels of IL-1β, TNFα, MCP-1 and IL-1β in cell lysates were measured by the Mesoscale Discovery system as per the manufacturer's instructions. Cell lysates were analyzed by Western blots as described (Mirzoeva 5, et al., J. Med Chem 2002, 45:563-566; Ralay Ranaivo H, et al J Neurosci 2006, 26:662-670) to determine the levels of inducible nitric oxide synthase (iNOS) and cyclooxygenase-2 (COX-2).

[2] = test system: iNOS production in activated BV-2 cells; test: LPS-induced iNOS levels in activated BV-2 cells, Western blot; format: cell-based, mouse
Experimental: as §2

[3] = test system: COX-2 production in activated BV-2 cells; test: LPS-induced COX-2 levels in activated BV-2 cells, Western blot; format: cell-based, mouse
Experimental: as §2

[4] = test system: human Aβ infusion mouse model; test: Human Aβ infusion mouse model, hippocampal neuroinflammation and synaptic biochemical endpoints; format: in vivo; conditions: hippocampus, Aβ-infused mice, oral compound
Experimental: The study design and treatment paradigm for intracerebroventricular (ICV) infusion of human oligomerie Aβ1-42 into the mouse will be as described previously (Craft et al., Neurobiol Aging 25:1283-1292, 2004b), except that compound administration will be by mouth. Female C57Bl/6 mice (Harlan) weighing 20-25 g (3-4 months old) will be housed in a pathogen free facility under an approximate 12 h/12 h dark and light cycle and they will have access ad libitum to food and water.
(§1) Once per day treatment will begin at day 21 after start of Aβ ICV infusion and continue for 14 days. Beginning at day 50 after start of Aβ ICV infusion, the Y maze test of spontaneous alternation will be used to evaluate hippocampus dependent spatial learning as described previously (Craf et al., J Mol. Neurosci. 24:115-122, 2004a). Briefly, each mouse will be placed in the “start” arm and then released to choose one of the two other arms. The mouse will be blocked from exiting the chosen arm for 30 s then they will be placed back in the start arm and released again to choose one of the two other arms. If the second choice is different from the first one, the mouse will be scored as alternating. Mice will be tested for 10 days with one trial per day, and a mean percent alternation will be calculated for each mouse. […] The brain will be removed and longitudinally bisected as described previously (Craft et al., Neurobiolo Aging 25:12834292, 2004b). […] The hippocampus will be dissected from the left half of the brain and snap-frozen for subsequent biochemical evaluation.
S100B levels in hippocampal supernatants will be measured by a empium-based ELISA essentially as previously described (Van Eldik and Griffin, Biochem Biophys Acta 1223:398-403, 1994). Synaptophysin levels in hippocampal supernatants will be quantified by ELISA following the procedure described previously (Craft at al, 20041, supra). PSD-95 levels will be determined by Western blots using anti-PSD-95 antibodies (1:100,000 dilution; Upstate Biotechnology) as described (Craft et al., 2004b).
It was previously shown that Aβ-induced neuroinflammation is an early event associated with the onset and progression of pathophysiology, and can be suppressed by an inhibitor of glial activation. Female C57Bl/6 mice (Harlan) weighing […] (3-4 months old) were housed in a pathogen free facility under an approximate 12 h/12 h dark and light cycle and had access ad libitum to food and water. All animal procedures were approved by the Northwestern Animal Care and Use Committee.

[5] = test system: human Aβ infusion mouse model; test: Human Aβ infusion mouse model, Y maze behavioral assay; format: in vivo; conditions: 1.25, 2.5, 5, and 10 mg/kg
Excerpt: as §1

[6] = test system: LPS-induced IL-1β production in BV-2 microglia cells; test: LPS-induced IL-1β production in BV-2 microglial cells; conditions: for inhibition of LPS-induced increases of IL-1β: BV2 microglial cell line, concentration dependence; for IC50: read-out: IL-1β, concentration required for 50% inhibition
Experimental: as §2

[7] = test system: QT interval in Lead II electrocardiogram, anesthetized guinea pigs; test: Cardiac QT interval prolongation assay in anesthetized guinea pigs; conditions: 0.3 mg/kg iv, positive control
Experimental: The QT interval studies are performed by evaluating compounds for effects on QT interval in Lead II electrocardiograms measured in anesthetized guinea pigs (Hirohashi et al., 1991, Arzneim.-Forsch./Drug Res 41:9-18), one of the species recommended in the FDA white paper. Vehicle or compound is administered orally at 15 mg/kg (dosing volume of 10 ml/kg) to groups of male guinea pigs (weighing 330-350 g), with 5 animals per group. […] Heart rate, arterial blood pressure, and QT intervals are measured at baseline, and at 15, 30, 45, and 60 min after compound administration. Sotalol administered iv at 0.3 mg/kg serves as the positive control compound. The QT intervals are corrected for changes in heart rate using both Bazetes and Fridericia's formulae. Any increase in QT interval values over baseline values exceeding the upper 95% confidence limit of the mean changes at the corresponding time point in the vehicle-treated control group for two consecutive observation times indicates significant QT interval prolongation in the individually treated animals.
The QT intervals (QTc) were corrected for changes in heart rate using both Bazett's and Fridericia's formulae.
The test substance was dissolved in 2% Tween 80 and administered by oral administration. The substance was treated at 15 mg/kg with a dosing volume of 10 ml/kg. Duncan Hartley derived guinea pigs provided by MDS Pharma Services—Taiwan Ltd were used. Sotalol was obtained from Sigma, USA.
Groups of guinea pigs (weighing 330-350 g) with 5 animals each were employed. The animals were anesthetized with urethane (1500 mg/kg, IV bolus injection in a volume of 5 ml/kg) and breathed spontaneously. Lead II ECG was obtained with subdermal needle electrodes and ECG signal conditioner. Heart rate was measured with a pulse rate tachometer. The carotid artery was cannulated with a catheter that was connected to a pressure transducer and a pressure processor for measurements of arterial blood pressure (BP). […] QTC intervals were obtained by correction for heart rate changes using Bazett's and Fridericia's formulae. Increase in QTc interval in individual treated guinea pigs that lies outside the upper limit of 95% confidence limits (mean±SD) of the changes for the vehicle-treated control at corresponding time points for two consecutive times is considered significant.

[8] = LPS-stimulated BV-2 cells, 16 hrs

| Compound | selectivity (inhibits IL-1β but not production of NO, iNOS, COX-2) [1] | inhibition of LPS-stimulated accumulation of the NO metabolite, nitrite [1] | suppression of LPS-induced production of iNOS [2] | suppression of LPS-induced production of COX-2 [3] | inhibition of LPS-induced increases of IL-1β [6] | further results |
| --- | --- | --- | --- | --- | --- | --- |
| CN1CCN(c2nnc(-c3ccccc3)cc2-c2ccncc2)CC1 [MW01-7-085WH, 3-(4-methylpiperazin-1-yl)-6-phenyl-4-(pyridin-4-yl)pyridazine] | selective | not inhibited | does not suppress | does not suppress | Concentration dependent inhibition | loss of PSD-95 [4]: prevented; loss of synaptophysin [4]: not as effective as MW01-2-151SRM; up-regulation of IL-1β [4]: blocked; up-regulation of S100B [4]: blocked; prevention of Y-maze behavioral deficit [5]: trend toward preventing |
| c1ccc(-c2cc(-c3ccccc3)c(N3CCNCC3)nn2)cc1 [MW01-7-133WH, 4,6-diphenyl-3-piperazinylpyridazine] | selective | not inhibited | does not suppress | does not suppress | Concentration dependent inhibition |  |
| CC(C)NCC(O)c1ccc(NS(C)(=O)=O)cc1 (stereo not shown) [sotalol, reference compound] |  |  |  |  |  | QTc interval prolongation [7]: caused significant prolongation; also recorded: significant increase |
| 4-pyridyl-6-phenyl-3-(4-pyrimidin-2-ylpiperazin-1-yl)pyridazine [MW01-6-189WH] |  | not inhibited | does not suppress | does not suppress | Concentration dependent inhibition |  |
| Clc1cc(-c2ccccc2)nnc1N1CCN(c2ncccn2)CC1 [MW01-6-127WH, 4-chloro-6-phenyl-3-(4-pyrimidin-2-ylpiperazin-1-yl)pyridazine] |  |  |  |  |  | IC50 ([1]; Mus musculus): 19 ± 8 µM; IC50 ([6]; Mus musculus, BV-2, 16 h): 9.5 ± 4 µM |
| Cc1cc(-c2ccccc2)nnc1N1CCN(C)CC1 [Compound 11, 4-Methyl-3-(4-methylpiperazin-1-yl)-6-phenylpyridazine] |  |  |  |  |  | IC50 ([6]; Mus musculus, BV-2, 16 h): 48.9 ± 23.2 µM |
| c1ccc(-c2cc(N3CCCCC3)c(N3CCN(c4ncccn4)CC3)nn2)cc1 [MW01-7-107WH, 2-(4-(6-phenyl-4-(piperidin-1-yl)pyridazin-3-yl)piperazin-1-yl)pyrimidine] | nonselective | also inhibited | also inhibited | also inhibited | Concentration dependent inhibition |  |
| 4-methyl-6-phenyl-3-(4-pyrimidin-2-ylpiperazin-1-yl)pyridazine [MW01-2-151SRM] |  | not inhibited | does not suppress | does not suppress | Concentration dependent inhibition |  |
| 4-Methyl-6-phenyl-3-(4-pyridin-2-yl)piperazin-1-yl)pyridazine [Compound 8] |  |  |  |  |  | IC50 [1]: > 25 µM |
| Cc1cc(-c2ccccc2)c(N2CCN(c3ncccn3)CC2)nn1 [MW01-7-057WH, 6-methyl-4-phenyl-3-(4-pyrimidin-2-ylpiperazin-1-yl)pyridazine] | selective | not inhibited | does not suppress | does not suppress | Concentration dependent inhibition | loss of PSD-95 [4]: did not block; loss of synaptophysin [4]: blocked; up-regulation of IL-1β [4]: did not block; up-regulation of S100B [4]: blocked; loss of PSD-95 ([4]; listed as MW01-2-057WH): no significant effect; prevention of Y-maze behavioral deficit [5]: significantly effective |
| c1ccc(-c2cc(-c3ccncc3)c(NCC3CC3)nn2)cc1 [MW01-7-084WH, N-(cyclopropylmethyl)-6-phenyl-4-(pyridin-4-yl)pyridazin-3-amine] | selective | not inhibited | does not suppress | does not suppress | Concentration dependent inhibition | loss of PSD-95 [4]: prevented; loss of synaptophysin [4]: not as effective as MW01-2-151SRM; up-regulation of IL-1β [4]: blocked; up-regulation of S100B [4]: blocked; prevention of Y-maze behavioral deficit [5]: trend toward preventing |
| Cc1cc(-c2ccccc2)nnc1N1CCN(C2CCCCC2)CC1 [Compound 10, 3-(4-cyclohexylpiperazin-1-yl)-4-methyl-6-phenylpyridazine] |  |  |  |  |  | IC50 ([6]; Mus musculus, BV-2, 16 h): 31.4 ± 4.9 µM |
| Cc1cc(-c2ccccc2)nnc1N1CCN(c2cnccn2)CC1 [Compound 7] |  |  |  |  |  | IC50 [6, 8]: 46.1 ± 23.3 µM |
| 4-Methyl-6-phenyl-3-(4-pyridin-4-yl)piperazin-1-yl)pyridazine [Compound 9] |  |  |  |  |  | IC50 [1]: > 25 µM |
| c1ccc(Cc2cc(-c3ccccc3)nnc2N2CCN(c3ncccn3)CC2)cc1 [Compound 2] |  |  |  |  |  | IC50 [1]: > 25 µM; IC50 [6, 8]: 5.3 ± 0.6 µM |
| CC(C)Cc1cc(-c2ccccc2)nnc1N1CCN(c2ncccn2)CC1 [Compound 4] |  |  |  |  |  | IC50 [1]: 22 ± 3 µM; IC50 [6, 8]: 6.1 ± 2.5 µM |
